doi:10.1101/2025.10.09.681351v1 (biorxiv, 2025)
pKd: −log10 of the molar value.

Experiments:
[1] = target: EPAS1 (mouse recombinant EPAS1; HIF-2α) (Mus musculus, UniProt P97481); assay: isothermal titration calorimetry; assay type: binding
recombinant human EPAS1 = recombinant human EPAS1 (Homo sapiens, UniProt Q99814); assay: isothermal titration calorimetry; assay type: binding
recombinant human EPAS1, sequence (Q99814 whole entry): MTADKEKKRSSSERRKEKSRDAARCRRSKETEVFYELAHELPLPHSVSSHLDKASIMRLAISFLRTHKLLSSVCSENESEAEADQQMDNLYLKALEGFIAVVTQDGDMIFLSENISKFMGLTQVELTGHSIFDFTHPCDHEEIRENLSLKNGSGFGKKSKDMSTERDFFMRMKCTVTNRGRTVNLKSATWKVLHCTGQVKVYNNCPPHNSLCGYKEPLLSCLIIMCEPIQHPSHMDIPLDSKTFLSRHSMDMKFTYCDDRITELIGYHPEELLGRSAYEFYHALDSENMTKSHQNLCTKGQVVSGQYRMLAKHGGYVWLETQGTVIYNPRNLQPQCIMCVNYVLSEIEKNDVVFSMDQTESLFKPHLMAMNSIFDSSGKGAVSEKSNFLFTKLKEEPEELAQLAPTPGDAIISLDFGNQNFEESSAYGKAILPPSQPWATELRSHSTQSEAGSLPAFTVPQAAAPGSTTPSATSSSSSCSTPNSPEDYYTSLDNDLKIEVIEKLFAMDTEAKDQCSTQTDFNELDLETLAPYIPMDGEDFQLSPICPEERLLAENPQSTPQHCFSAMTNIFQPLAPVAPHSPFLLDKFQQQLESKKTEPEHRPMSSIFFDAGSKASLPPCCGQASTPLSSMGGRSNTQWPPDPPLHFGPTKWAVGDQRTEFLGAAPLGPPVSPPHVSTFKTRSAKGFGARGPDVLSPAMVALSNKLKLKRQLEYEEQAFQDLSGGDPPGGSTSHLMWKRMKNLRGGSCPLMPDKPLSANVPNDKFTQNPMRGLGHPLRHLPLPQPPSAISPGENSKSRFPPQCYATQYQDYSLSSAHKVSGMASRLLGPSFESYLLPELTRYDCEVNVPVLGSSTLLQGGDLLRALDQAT

EPAS1 (mouse recombinant EPAS1; HIF-2α), sequence (P97481 whole entry): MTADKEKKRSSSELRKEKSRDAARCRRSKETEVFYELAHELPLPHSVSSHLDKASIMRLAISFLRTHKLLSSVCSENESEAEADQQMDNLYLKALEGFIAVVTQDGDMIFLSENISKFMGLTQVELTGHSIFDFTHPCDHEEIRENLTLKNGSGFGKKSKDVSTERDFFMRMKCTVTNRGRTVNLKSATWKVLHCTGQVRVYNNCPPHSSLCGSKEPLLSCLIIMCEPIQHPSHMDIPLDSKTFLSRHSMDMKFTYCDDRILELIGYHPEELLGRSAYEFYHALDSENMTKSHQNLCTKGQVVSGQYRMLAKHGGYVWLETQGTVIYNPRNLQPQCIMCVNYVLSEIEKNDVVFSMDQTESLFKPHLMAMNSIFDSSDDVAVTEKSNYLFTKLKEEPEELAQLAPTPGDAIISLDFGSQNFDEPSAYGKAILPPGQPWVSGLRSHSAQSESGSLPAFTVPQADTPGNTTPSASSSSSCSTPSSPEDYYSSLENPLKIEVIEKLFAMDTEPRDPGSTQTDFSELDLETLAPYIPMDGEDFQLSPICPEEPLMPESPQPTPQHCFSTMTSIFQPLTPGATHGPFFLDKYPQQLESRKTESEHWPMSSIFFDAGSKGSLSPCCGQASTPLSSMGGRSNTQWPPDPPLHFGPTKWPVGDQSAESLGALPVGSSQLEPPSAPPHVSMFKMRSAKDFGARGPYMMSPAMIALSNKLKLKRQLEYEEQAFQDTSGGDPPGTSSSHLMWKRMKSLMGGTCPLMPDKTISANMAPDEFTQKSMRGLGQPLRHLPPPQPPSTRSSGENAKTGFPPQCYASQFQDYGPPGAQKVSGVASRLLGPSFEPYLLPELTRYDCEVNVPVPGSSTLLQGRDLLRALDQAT

pKd [1]: 5.37 | pKd (recombinant human EPAS1): 5.28
SMILES: CCCCCCCCC/C=C\C(=O)O [BDSF]
